# According to PMC3280428 (Journal of Molecular Biology, 2011):
# Several values for one entry are separate records, joined by “and”; a condition that tells them apart may be missing. Identical values can stand only once.
# Experiments:
# Cytotoxicity [1] = format: cell-based; conditions: 129S2/SvPasCrl, mouse
# [2] = biological target: T1, KIAA1718 Jumonji domain (residues 92–488) (Homo sapiens, UniProt Q6ZMT4); experiment: Mass-spectrometry-based demethylation inhibition assay, KIAA1718 Jumonji domain; format: biochemical
# T1 sequence (Q6ZMT4 92-488): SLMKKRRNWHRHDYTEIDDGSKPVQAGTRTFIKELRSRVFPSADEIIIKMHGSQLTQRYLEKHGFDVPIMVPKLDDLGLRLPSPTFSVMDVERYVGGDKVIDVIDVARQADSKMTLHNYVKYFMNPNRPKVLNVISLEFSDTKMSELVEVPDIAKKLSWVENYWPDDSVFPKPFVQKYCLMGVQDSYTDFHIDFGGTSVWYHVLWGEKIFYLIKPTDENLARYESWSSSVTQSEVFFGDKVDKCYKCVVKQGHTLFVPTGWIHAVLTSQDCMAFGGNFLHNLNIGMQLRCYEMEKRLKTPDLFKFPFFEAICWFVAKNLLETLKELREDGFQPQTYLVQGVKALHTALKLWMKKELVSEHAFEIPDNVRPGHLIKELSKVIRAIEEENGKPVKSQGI
# Cytotoxicity [3] = format: cell-based; conditions: human
compound,measurement,setting,value
COc1cc2nc(N3CCCN(C)CC3)nc(NC3CCN(Cc4ccccc4)CC3)c2cc1OC [BIX-01294],CC50 at 24 h,Cytotoxicity [1],7.4 µM
same,IC50,[2],16.5 µM and ~16.5 µM
same,Ki,[2],15.3 µM
same,CC50 at 24 h,Cytotoxicity [3],3.2 µM
